Measured values as given in US11547679B2, “Mitoriboscins: mitochondrial-based therapeutics targeting cancer cells, bacteria and pathogenic yeast” (LUNELLA BIOTECH, INC., priority 2017, dated 2023).
In brackets after ≈: the same amount, converted by molar mass.

What was measured:
MCF7 cells [1] = assay: Seahorse XF96 metabolic flux: oxygen consumption rate (OCR), ATP; format: cell-based, human; settings: for rank order potency to reduce maximal respiration and ATP production: MCF7, top 10 hits; for mitochondrial oxygen-consumption: MCF7, 72 hours treatment
From the text: (§1) The present approach further involves methods of functional validation at step S105, during which a compound's function as a mitochondrial inhibitor may be confirmed. A number of methods may be used for functional validation, including, for example, metabolic flux analysis, mammosphere assays, viability assays, and antibiotic (anti-bacterial and/or anti-fungal) activity. For example, the inventors determined extracellular acidification rates (ECAR) and real-time oxygen consumption rates (OCR) for MCF7 cells using the Seahorse Extracellular Flux (XF96) analyzer (Seahorse Bioscience, MA, USA). MCF7 cells were maintained in DMEM supplemented with 10% FBS (fetal bovine serum), 2 mM GlutaMAX, and 1% Pen-Strep. 5,000 cells per well were seeded into XF96-well cell culture plates, and incubated overnight at 37° C. in a 5% CO2 humidified atmosphere. After 24 hours, cells were treated with selected compounds showing ATP-depletion without prominent cytotoxicity at various concentrations (or vehicle alone). After 72 hours of treatment, cells were washed in pre-warmed XF assay media (for OCR measurement, XF assay media was supplemented with 10 mM glucose, 1 mM Pyruvate, 2 mM L-glutamine and adjusted at pH 7.4). Cells were maintained in 175 μL/well of XF assay media at 37° C. in a non-CO2 incubator for 1 hour. During incubation, 25 μL of 80 mM glucose, 9 μM oligomycin, 1M 2-deoxyglucose (for ECAR measurement) and 25 μL of 10 μM oligomycin, 9 μM FCCP, 10 μM rotenone, 10 μM antimycin A (for OCR measurement) in XF assay media was loaded into the injection ports of the XFe-96 sensor cartridge. During the experiment, the instrument injected these inhibitors into the wells at a given time point, while ECAR/OCR was measured continuously. ECAR and OCR measurements were normalized by protein content (using the Sulphorhodamine B assay). Data sets were analyzed by XFe-96 software, using one-way ANOVA and Student's t-test calculations. All experiments were performed in triplicate, and results validated the mitochondrial inhibition effects of mitoriboscin compounds described herein. It should be appreciated that numerous methods are known for functional validation, and that persons of skill in the art may select one or more depending on the validation needs (e.g., other assays that measure or approximate mitochondrial function). The present approach involves methods of function validation of mitoriboscin compounds. For example, the inventors assessed functional validation of three candidates using the Seahorse Analyzer, which quantitatively measures oxygen consumption rate (OCR) and extracellular acidification rate (ECAR). OCR is a surrogate marker for OXPHOS and ECAR is a surrogate marker for glycolysis and L-lactate production.

[2] = tested on: normal human fibroblasts (hTERT-BJ1 cells); assay: Cell viability of normal fibroblasts; format: cell-based; settings: 5 μM
Method: (§2) The present approach includes methods of confirming cell viability. Persons of skill in the art may select one or more methods for confirming cell viability suitable for the particular embodiment. The inventors initially used the Sulphorhodamine (SRB) assay, which is based on the measurement of cellular protein content. After treatment for 72 hours in 96-well plates, cells were fixed with 10% trichloroacetic acid (TCA) for 1 hour in the cold room, and were dried overnight at room temperature. Then, cells were incubated with SRB for 15 min, washed twice with 1% acetic acid, and air dried for at least 1 hour. Finally, the protein-bound dye was dissolved in a 10 mM Tris, pH 8.8 solution and read using the plate reader at 540-nm. Using the SRB assay, the inventors selected only the compounds depleting ATP levels without prominent cytotoxicity for further analysis. Prominent cytotoxicity was defined as fewer than 30% of cells still on the plate. Of course, embodiments employing other cell viability confirmation methodology may select compounds for further analysis based on other considerations as may be known in the art.
(§3) Based on this analysis, the inventors assessed the functional effects of the three candidates on overall viability in MCF7 cell monolayers and normal human fibroblasts (hTERT-BJ1 cells) (FIG. 6). […]

MRSA ATCC 43300 = assay: MIC by broth dilution method; format: cell-based, Methicillin-resistant Staphylococcus aureus
Method: (§4) The minimal inhibitory concentration (MIC) of the antibacterial compounds may be determined using the broth dilution method, according to CLSI guidelines. Test compound solutions (or antibiotic solutions used as positive controls) were diluted, serially, with MHB medium. Then, the suspensions of the microorganisms, prepared from overnight cultures of bacteria in the MHB medium, at a concentration of 10^6 CFU/ml, were added to each dilution in a 1:1 ratio. McFarland standards were used as a reference to adjust the turbidity of microorganism suspensions. Growth (or lack thereof) of the microorganisms was determined after incubation for 24 hours at 37° C. by turbidimetry (wavelength of 600 nm). MIC 50 and MIC 99 are defined as the minimum inhibitory concentration of the compound required for 50% and 99% inhibition of bacterial growth. […] The susceptibility test by measurement of MIC was performed in triplicate and repeated three times independently. Statistical significance was determined using the Student's t-test and values of less than 0.05 were considered significant.

MCF7 cells [3] = assay: Mammosphere formation; format: cell-based, human; settings: MCF7, 5 μM
From the text: The present approach involves methods of testing compounds, and in particular mitoriboscins, for anti-cancer properties. As discussed above, vHTS and computational chemistry may be used to identify candidate mitochondrial inhibitors. Those candidates may be tested for specific anti-cancer properties. For examples, the inventors compared seven candidate compounds in parallel for their ability to inhibit mammosphere formation in MCF7 cells. […] For example, 23/G4 (Group 1) reduced mammosphere formation by 50% at this concentration. Similarly, 24/F9 (Group 2) and 24/D4 (Group 3), both reduced mammosphere formation by ˜90%.

MCF7 cell monolayers = assay: Cell viability of MCF7 cell monolayers; format: cell-based, human
Method: as §2, §3

K. pneumoniae ATCC 13883 = assay: MIC by broth dilution method; format: cell-based; settings: K. pneumoniae ATCC 13883, 24 hours at 37° C.
Method: as §4, with “nm).” for “nm). MIC 50 and MIC 99 are defined as the minimum inhibitory concentration of the compound required for 50% and 99% inhibition of bacterial growth.”, “independently.” for “independently. Statistical significance was determined using the Student's t-test and values of less than 0.05 were considered significant.”

[4] = tested on: Strept. pyogenes ATCC 19615; assay: MIC by broth dilution method; format: cell-based; settings: Strept. pyogenes ATCC 19615, 24 hours at 37° C.
Method: as §4, with “nm).” for “nm). MIC 50 and MIC 99 are defined as the minimum inhibitory concentration of the compound required for 50% and 99% inhibition of bacterial growth.”, “independently.” for “independently. Statistical significance was determined using the Student's t-test and values of less than 0.05 were considered significant.”

P. auriginosa ATCC 27853 = assay: MIC by broth dilution method; format: cell-based; settings: P. auriginosa ATCC 27853, 24 hours at 37° C.
Method: as §4, with “nm).” for “nm). MIC 50 and MIC 99 are defined as the minimum inhibitory concentration of the compound required for 50% and 99% inhibition of bacterial growth.”, “independently.” for “independently. Statistical significance was determined using the Student's t-test and values of less than 0.05 were considered significant.”

MCF7 cells [5] = assay: Seahorse XF96 metabolic flux: extracellular acidification rate (ECAR), glycolysis; format: cell-based, human
From the text: as §1, with “ECAR and OCR measurements were normalized by protein content (using the Sulphorhodamine B assay).” left out, “All experiments were performed in triplicate, and results validated the mitochondrial inhibition effects of mitoriboscin compounds described herein. It should be appreciated that numerous methods are known for functional validation, and that persons of skill in the art may select one or more depending on the validation needs (e.g., other assays that measure or approximate mitochondrial function). The present approach involves methods of function validation of mitoriboscin compounds.” left out, “OCR is a surrogate marker for OXPHOS and ECAR is a surrogate marker for glycolysis and L-lactate production.” left out

For `OC1C(NCc2ccccc2)CCCC1Oc1ccccc1Oc1cccc(F)c1` (centres unmarked) [23/E9], the “rank order potency to reduce maximal respiration and ATP production” value (MCF7 cells [1]; FIG. 10) was “top 6”.

With `OC1C(NCc2ccccc2)CCCC1Oc1ccccc1Oc1ccc(Cl)cc1` (centres unmarked) [23/G4] the “effect on viability of hTERT-BJ1 cells” value [2] was “no effect”, the “sensitivity of MRSA” value (MRSA ATCC 43300) was “sensitive” and the “reduction of mammosphere formation” value (MCF7 cells [3]) was 50%. For the same compound, the “effect on overall cell viability of MCF7 monolayers” value (MCF7 cell monolayers; 500 nM and 2.5 μM) was “little or no effect”, the “reduction of viability of MCF7 cells” value (MCF7 cell monolayers; 5 μM) was 70% and the “MIC 50%” value (K. pneumoniae ATCC 13883) was 16 µg/mL (≈ 37.7 µM). The “MIC 99%” value (K. pneumoniae ATCC 13883) was 32 µg/mL (≈ 75.5 µM), the “MIC 50%” value [4] was 4 µg/mL (≈ 9.44 µM) and the “MIC 99%” value [4] was 8 µg/mL (≈ 18.9 µM). The “MIC 50%” value (P. auriginosa ATCC 27853) was 16 µg/mL (≈ 37.7 µM), the “MIC 99%” value (P. auriginosa ATCC 27853) was 32 µg/mL (≈ 75.5 µM) and the “reduction of ATP levels” value (MCF7 cells [1]; MCF7, 500 nM) was > 50%. The “reduction of ATP levels” value (MCF7 cells [1]; MCF7, 2.5 μM) was ~75%, the “reduction in ATP levels” value (MCF7 cells [1]; MCF7, 5 μM, FIG. 10) was “greater than 75%” and the “mitochondrial oxygen-consumption” value (MCF7 cells [1]) was “dose-dependently inhibited”. The “rank order potency to reduce maximal respiration and ATP production” value (MCF7 cells [1]; FIG. 10) was “top 6” and the “increase in glycolysis rates” value (MCF7 cells [5]) was “more than 1.5 fold”.

In the case of `CCCc1ccc(OCc2ccccc2)c(CN2CCC3(CC2)CC(N(C)C)C(C)(O)CO3)c1` (centres unmarked) [24/D4], the “sensitivity of MRSA” value (MRSA ATCC 43300) was “sensitive”, the “reduction of mammosphere formation” value (MCF7 cells [3]) was ~90% and the “MIC 50%” value (K. pneumoniae ATCC 13883) was 16 µg/mL (≈ 34.3 µM). For the same compound, the “MIC 99%” value (K. pneumoniae ATCC 13883) was 32 µg/mL (≈ 68.6 µM), the “MIC 50%” value [4] was 16 µg/mL (≈ 34.3 µM) and the “MIC 99%” value [4] was 32 µg/mL (≈ 68.6 µM). For the same compound, the “MIC 50%” value (P. auriginosa ATCC 27853) was 16 µg/mL (≈ 34.3 µM), the “MIC 99%” value (P. auriginosa ATCC 27853) was 32 µg/mL (≈ 68.6 µM) and the “mitochondrial oxygen-consumption” value (MCF7 cells [1]) was “dose-dependently inhibited”. The “effect on glycolysis” value (MCF7 cells [5]) was “suppressed”.

In the case of `CN1CCN(C2CCN(Cc3cc(C(C)(C)C)ccc3OCc3ccccc3)CCC2O)CC1` (centres unmarked) [24/F9], the “reduction of mammosphere formation” value (MCF7 cells [3]) was ~90%, the “MIC 50%” value (K. pneumoniae ATCC 13883) was 32 µg/mL (≈ 68.7 µM) and the “MIC 99%” value (K. pneumoniae ATCC 13883) was 64 µg/mL (≈ 137 µM). The “MIC 50%” value [4] was 32 µg/mL (≈ 68.7 µM), the “MIC 99%” value [4] was 64 µg/mL (≈ 137 µM) and the “MIC 50%” value (P. auriginosa ATCC 27853) was >32 µg/mL. The “MIC 99%” value (P. auriginosa ATCC 27853) was >64 µg/mL, the “mitochondrial oxygen-consumption” value (MCF7 cells [1]) was “dose-dependently inhibited” and the “rank order potency to reduce maximal respiration and ATP production” value (MCF7 cells [1]; FIG. 10) was “top 6”. For the same compound, the “effect on glycolysis” value (MCF7 cells [5]) was “suppressed”.

With `CN1CCCN(C2CCN(Cc3cc(Cl)ccc3OCc3ccccc3)CCC2O)CC1` (centres unmarked) [24/H6] the “rank order potency to reduce maximal respiration and ATP production” value (MCF7 cells [1]; FIG. 10) was “top 6”.

In the case of `CN(C)C1CC2(CCN(Cc3cc(Cl)ccc3OCc3ccccc3)CC2)OCC1(C)O` (centres unmarked) [24/H9], the “rank order potency to reduce maximal respiration and ATP production” value (MCF7 cells [1]; FIG. 10) was “top 6”.

`CN(C)Cc1cccc(C2CCCN2Cc2ccccc2OCc2cccc(F)c2)n1` (centres unmarked) [25/B3] was tested, and the “rank order potency to reduce maximal respiration and ATP production” value (MCF7 cells [1]; FIG. 10) was “top 6”.

With `CC1(C)S[C@@H]2[C@H](NC(=O)[C@H](N)c3ccc(O)cc3)C(=O)N2[C@H]1C(=O)O` [AMOXICILLIN, reference compound] the “sensitivity of MRSA” value (MRSA ATCC 43300) was “resistant”.

For `C[C@H]1c2cccc(O)c2C(=O)C2=C(O)[C@]3(O)C(=O)C(C(N)=O)=C(O)[C@@H](N(C)C)[C@@H]3[C@@H](O)[C@@H]21` [DOXYCYCLINE, reference compound], the MIC50 (P. auriginosa ATCC 27853) was 1 µg/mL (≈ 2.25 µM) and the MIC99 (P. auriginosa ATCC 27853) was 2 µg/mL (≈ 4.5 µM).
